One series concerns corticosterone. The following applies: mouse, in vivo, po, 30 mg/kg.
The subject of another series is MDCK cell monolayers. The following applies: pH 7.4.
The conditions of series [1]: reported, cited from earlier work.
A further series deals with male CD-1 mice. Briefly: elevated plus maze test (EPM), mouse model of stress-induced anxiety. Type of series: in vivo. Here is the method: Formula III (also referred to as PND-001) as a representative compound out of the class of SASGRMs was tested in a mouse model of stress-induced anxiety, the elevated plus maze test (EPM) (Experiment 1). The EPM relies on the inherent conflict between a rodent's tendency to explore a novel environment on one hand, and the stress of such exploration, resulting in avoidance of the aversive properties of the brightly lit open arms. Compounds that reduce anxiety specifically increase the frequency of entries into the open arms and time spent in the open arms.
Four to five week-old male CD-1 mice were group-housed (6 or 7 mice per cage) and maintained in a room with controlled temperature (21-22° C.) and a reversed light-dark cycle (12 h/12 h; lights on: 17:30-05:30; lights off: 05:30-17:30) with food and water available ad libitum.
Formula III and the vehicle (5% Dimethyl Sulfoxide (DMSO) and 95% Polyethylene Glycol 400 (PEG400)) were s.c. administrated 24 hours and 6 hours prior the EPM trial.
Diazepam was p.o. administrated 60 min prior the EPM trial as a positive control.
Formula III was tested in doses of 10, 30 and 100 mg/kg. Diazepam was p.o administrated 60 min prior the EPM trial and tested in a dose of 1 mg/kg. (see Table 1).
The mice were randomly assigned to one of the different experimental groups. Each animal was identified by its group name, cage number, series (day) of experiment, and a number (from 1 to 12) written with permanent ink on its tail.
The apparatus was a PVC maze covered with Plexiglas and subdivided into four equal exploratory arms (21×8 cm), which are all interconnected by a small platform (8×8 cm). The apparatus was placed 59 cm above the floor. Two arms are opened and two others are closed with wall (high: 21 cm).
After compound administration, mouse was placed on the platform opposite a closed arm. The number of entries and the time spent in each arm were recorded during a 5 min period. The animal was considered as entered in an arm when it places its four paws in the arm.
Analysis of variance (ANOVA) was performed on the result data. Fisher's PLSD was used for pairwise comparisons and p value ≤0.05 were considered significant.
In the next experiment in the Elevated Plus Maze Test (Experiment 2; conducted as described under the same experimental procedures and analysis as described for Experiment 1), the efficacy of Formula III (also referred to as PND001) at lower doses was studied. […] Compounds or vehicle (5% Dimethyl Sulfoxide (DMSO) and 95% Polyethylene Glycol 400 (PEG400)) were administrated s.c. 24 hours and 6 hours prior the EPM trial (Table 3).
Formula III (PND 001) was tested in doses of 1, 3 and 10 mg/kg. Formula IV (PND 002) was tested in doses of 30 mg/kg. Diazepam was p.o administrated 60 min prior the EPM trial as positive control and tested in a dose of 1 mg/kg.
In a third experiment in the Elevated Plus Maze Test (Experiment 3), conducted as described under the same experimental procedures and analysis as described for Experiment 1, the effect of the dosing route and regimen was investigated. Formula III (also referred to as PND001) and the vehicle (5% Dimethyl Sulfoxide (DMSO) and 95% Polyethylene Glycol 400 (PEG400)) were administrated by gavage (p.o.). Diazepam was i.p. administrated 30 min prior the EPM trial as positive control.
PND 001 was tested in doses of 3 mg/kg which had the highest efficacy in Experiment 2, and administrated either twice at 6 h and 1 h before the EPM trial, or given only once at 1 h before the trial. Diazepam was i.p. administrated 30 min prior the EPM trial and tested in a dose of 1 mg/kg. (see Table 5).

A further series deals with rat plasma proteins. The following applies: reported; cited from earlier work.
In a further series the test system is human plasma proteins. The following applies: reported; cited from earlier work.
The test system of the next series is rat hepatocytes. The note with it: in vitro, reported; cited from earlier work.
Where [2] appears, read: Experiment 2, 30 mg/kg sc 24 h and 6 h.
Setting [3] is: Experiment 2, 30 mg/kg, 24 + 6 h, sc.
[4] abbreviates: Experiment 1, 1 mg/kg po 60 min.
Where [5] appears, read: Experiment 2, 1 mg/kg po 60 min.
Setting [6] is: Experiment 3, 1 mg/kg ip 30 min.
[7] abbreviates: Experiment 3, 1 mg/kg, 30 min, ip.

The source of these data is US20220072009A1, “SHORT-ACTING SELECTIVE GLUCOCORTICOID RECEPTOR MODULATORS” (PANDA CONSULTING LLC, priority 2018, published 2022).

Procedure for MDCK cell monolayers: BBB penetration is assessed in vitro using confluent MDCK cell monolayers and dosing of 504 of test compounds on apical and basolateral side of the monolayer at pH 7.4 for 90 min. The apparent permeability in both directions, and the efflux ratio is determined after subjecting samples to LC-MS/MS analysis.

Consider `CCCCCCNC(=O)[C@@]1(O)[C@H](C)CC2[C@@H]3CCC4=CC(=O)C=C[C@]4(C)[C@@]3(F)[C@@H](O)C[C@@]21C` (some centres unmarked) [Formula IV], for which the corticosterone increase result with corticosterone is recorded as “not found to be significantly increased”. Besides, the BBB penetration potential result in the series with MDCK cell monolayers is “moderate to high”. Also, the “conversion to unidentified metabolites in rat liver microsomes (time)” value in series [1] is at most 30 min. In the series with male CD-1 mice (setting [2]), the “increase in number of entries into the open arms compared to vehicle treated mice” value stood at 77% and the “increase in time spent into the open arms compared to vehicle treated mice” value is on record as 90%. For the same compound, in the series with male CD-1 mice (setting [3]), the “Number of entries in the open arm, Mean” value is given as 10.1 n and the “Time spent in the open arm, Mean” value is listed as 64.1 s.

As to `CN1C(=O)CN=C(c2ccccc2)c2cc(Cl)ccc21` [Diazepam, reference compound], in the series with male CD-1 mice (setting [4]), the “increase in number of entries to the open arms compared to vehicle treated mice” value is recorded as 233%. Besides, the “increase in time spent in the open arms compared to vehicle treated mice” value in the series with male CD-1 mice (setting [4]) came out at 327%. Besides, the “Number of entries in the open arm, Mean” value was 10.0 n with male CD-1 mice (Experiment 1, 1 mg/kg, 1 h, po); 14.0 n in the series with male CD-1 mice (Experiment 2, 1 mg/kg, 1 h, po); 23.2 n in the series with male CD-1 mice (setting [7]). In addition, the “Time spent in the open arm, Mean” value was determined as 59.6 s in the series with male CD-1 mice (Experiment 1, 1 mg/kg, 1 h, po); 84.6 s in the series on male CD-1 mice (Experiment 2, 1 mg/kg, 1 h, po); 116.9 s in the series with male CD-1 mice (setting [7]). The figures for the “increase in number of entries into the open arms compared to vehicle treated mice” value in the series on male CD-1 mice (setting [5]) and in the series on male CD-1 mice (setting [6]) were 146% and 400%, respectively. For the same compound, the “increase in time spent into the open arms compared to vehicle treated mice” value is on record as 151% in the series with male CD-1 mice (setting [5]) and 270% with male CD-1 mice (setting [6]).

On to `CC#C[C@]1(O)CC[C@H]2[C@@H]3CCC4=CC(=O)CCC4=C3[C@@H](c3ccc(N(C)C)cc3)C[C@@]21C` [mifepristone], for which the “plasma protein binding, rat serum” value in the series with rat plasma proteins is recorded as “over 95%”. Besides, the “plasma protein binding, human serum” value in the series on human plasma proteins is “over 95%”.

For `C[C@]12CCC3C(C[C@H]4OC[C@@]35CCC(=O)C=C45)C1CC[C@@H]2C(=O)CO` (some centres unmarked) [Formula II], in the series with corticosterone, the corticosterone increase entry is “not found to be significantly increased”. In the series on MDCK cell monolayers, the BBB penetration potential result is on record as “moderate to high”.

In the case of `C[C@]12C=CC(=O)C=C1CCC1C2OC[C@@]2(C)C1CC[C@]2(O)C(=O)CO` (some centres unmarked) [Formula V], the corticosterone increase entry in the series with corticosterone is “not found to be significantly increased”. For the same compound, in the series on MDCK cell monolayers, the BBB penetration potential result is “moderate to high”.

On to `CC#C[C@]1(O)CCC2C3CCC4=CC(=O)CC[C@]4(Cc4ccc(C)cc4)C3=CC[C@@]21C` (stereo partly drawn) [Formula I, (10R,13S,17S)-17-hydroxy-13-methyl-10-[(4-methylphenyl)methyl]-17-prop-1-ynyl-2,6,7,8,12,14,15,16-octahydro-1H-cyclopenta[a]phenanthrene-3-one], for which, in the series with corticosterone, the corticosterone increase result is “not found to be significantly increased”. The BBB penetration potential entry in the series on MDCK cell monolayers is given as “moderate to high”. For the same compound, the “half life in rat hepatocytes” value with rat hepatocytes is “less than 0.2 h”. Moreover, in series [1] (in vitro), the “half life in rat liver microsomes” value was 19.8 min.
